# Reference: PMC11027885, “Utilizing surface plasmon resonance as a novel method for monitoring in-vitro P-glycoprotein efflux” (Frontiers in biophysics, 2024)
# Structures can show the parent of a compound that is named as a salt. Where two headings read alike, the source gives them in different places.
# Legend:
# Pgp = tested on: Pgp; parameters: method as in Doan et al. (2002); details: drug accumulation assay, MDR1-MDCKII cells; ref Doan et al. (2002); cited from earlier work
# mouse Pgp (Abcb1a, MDR3) = mouse Pgp (Abcb1a, MDR3) (Mus musculus, UniProt P21447); experiment: ATPase assay (Chifflet method), Pgp reconstituted in liposomes
# Pgp (Abcb1a, MDR3) = Pgp (Abcb1a, MDR3) (Mus musculus, UniProt P21447); experiment: in vitro; details: pH 7.4
# Chain of Pgp (Abcb1a, MDR3) (P21447 whole entry): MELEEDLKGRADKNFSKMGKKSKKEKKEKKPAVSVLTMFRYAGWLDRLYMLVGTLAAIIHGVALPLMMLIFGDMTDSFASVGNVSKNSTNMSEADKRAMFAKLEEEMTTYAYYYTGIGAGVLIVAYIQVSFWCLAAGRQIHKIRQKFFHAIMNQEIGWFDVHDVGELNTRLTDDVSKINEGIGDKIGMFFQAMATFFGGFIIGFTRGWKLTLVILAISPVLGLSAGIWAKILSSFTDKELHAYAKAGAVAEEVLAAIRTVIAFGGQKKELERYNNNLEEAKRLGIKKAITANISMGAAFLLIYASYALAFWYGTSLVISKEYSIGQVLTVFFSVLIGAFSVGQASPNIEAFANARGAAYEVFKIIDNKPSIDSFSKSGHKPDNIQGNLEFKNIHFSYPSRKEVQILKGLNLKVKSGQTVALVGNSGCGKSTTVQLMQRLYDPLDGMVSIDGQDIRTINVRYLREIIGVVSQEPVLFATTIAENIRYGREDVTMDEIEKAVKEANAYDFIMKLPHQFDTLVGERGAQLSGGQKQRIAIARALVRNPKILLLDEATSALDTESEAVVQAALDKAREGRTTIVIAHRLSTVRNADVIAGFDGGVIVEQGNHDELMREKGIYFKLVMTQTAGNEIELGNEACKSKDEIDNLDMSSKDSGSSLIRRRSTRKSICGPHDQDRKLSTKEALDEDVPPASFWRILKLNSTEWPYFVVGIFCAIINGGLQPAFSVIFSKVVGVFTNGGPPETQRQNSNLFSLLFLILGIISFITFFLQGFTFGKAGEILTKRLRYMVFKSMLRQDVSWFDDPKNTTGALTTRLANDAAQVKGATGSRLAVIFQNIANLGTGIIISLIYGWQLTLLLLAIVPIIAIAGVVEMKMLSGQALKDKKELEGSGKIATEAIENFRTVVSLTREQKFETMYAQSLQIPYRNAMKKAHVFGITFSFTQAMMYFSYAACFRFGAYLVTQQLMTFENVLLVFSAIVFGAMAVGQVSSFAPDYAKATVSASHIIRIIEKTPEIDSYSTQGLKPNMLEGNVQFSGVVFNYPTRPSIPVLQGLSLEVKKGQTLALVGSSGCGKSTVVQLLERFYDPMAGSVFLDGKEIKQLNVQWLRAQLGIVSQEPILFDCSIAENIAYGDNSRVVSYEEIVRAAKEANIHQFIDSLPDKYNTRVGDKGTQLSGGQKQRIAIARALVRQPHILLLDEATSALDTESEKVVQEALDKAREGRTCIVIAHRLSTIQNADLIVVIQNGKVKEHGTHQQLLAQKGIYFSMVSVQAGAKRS
# Chain of mouse Pgp (Abcb1a, MDR3) (P21447 whole entry): as above
smiles,measurement,setting,value
"CNCCCN1c2ccccc2CCc2ccccc21 [Desipramine, desipramine hydrochloride]",Pgp efflux ratio (literature),Pgp,2
same,vmax of Pgp ATP hydrolysis,"mouse Pgp (Abcb1a, MDR3); 50 nM Pgp in liposomes, curve fit (Eq. 2 monophasic, Eq. 3 biphasic)",904 ± 65 nmolmin^−1mg^−1
same,ATP hydrolysis activation profile,"mouse Pgp (Abcb1a, MDR3); shape of ATPase kinetics curve",monophasic
same,koff,"Pgp (Abcb1a, MDR3)",129 s⁻¹
"CCC(=O)C(CC(C)N(C)C)(c1ccccc1)c1ccccc1 (stereo not drawn) [Methadone, methadone hydrochloride]",peak ATP hydrolysis rate,"mouse Pgp (Abcb1a, MDR3)",approximately 800 nmolmin^−1mg^−1
same,vmax of Pgp ATP hydrolysis,"mouse Pgp (Abcb1a, MDR3)",849 ± 45 nmolmin^−1mg^−1
C=C[C@H]1C[N@@]2CC[C@H]1C[C@@H]2[C@@H](O)c1ccnc2ccc(OC)cc12 [Quinidine],Ki,"mouse Pgp (Abcb1a, MDR3)",131 ± 34 µM
same,peak ATP hydrolysis rate,"mouse Pgp (Abcb1a, MDR3)",approximately 900 nmolmin^−1mg^−1
"[Na+].[Na+].[Na+].[O]=[V]([O-])([O-])[O-] [sodium orthovanadate, Sodium orthovanadate]",Pgp ATPase activity in presence of inhibitor,"mouse Pgp (Abcb1a, MDR3); decline from basal 482 ± 50",approximately 100 nmolmin^−1mg^−1
